US9119853B2, “Sanglifehrin based compounds” (priority 2010, dated 2015)
pEC50, pIC50: −log10 of the molar value. Converted amounts (≈) assume the structure as drawn. Where two headings read alike, the source gives them in different places.

Tests used:
HBV = conditions: Ptak et al. 2008; read-out: IC50 against HBV; cited from earlier work
HIV-1 = conditions: clinical, Steyn et al., 2006, cited from earlier work
CyPA = CyPA (Homo sapiens, UniProt P62937); conditions: cited from earlier work
[1] = pH 7.4
Huh5.2 cells = assay: Anti-metabolic effect (MTS) in the replicon cell line
[2] = system: HCV genotype 1b I389luc-ubi-neo/NS3-3'/5.1 replicon in Huh5.2 cells; assay: microbe, parasite or virus in culture; assay type: cell-based, Hepatitis C Virus
[3] = system: peripheral blood mononuclear cells (PBMC); assay: Mixed lymphocyte reaction (MLR) for immunosuppressant activity; assay type: cell-based, human; conditions: 3H-thymidine proliferation; read-out: Human MLR IC50
[4] = target: T1, GST-CypD / Con1 NS5A-His complex (Homo sapiens, UniProt P30405); assay: ELISA analysis of Cyp-NS5A interaction (CypD-NS5A disruption)
T1 sequence (P30405 30-207, one chain of several): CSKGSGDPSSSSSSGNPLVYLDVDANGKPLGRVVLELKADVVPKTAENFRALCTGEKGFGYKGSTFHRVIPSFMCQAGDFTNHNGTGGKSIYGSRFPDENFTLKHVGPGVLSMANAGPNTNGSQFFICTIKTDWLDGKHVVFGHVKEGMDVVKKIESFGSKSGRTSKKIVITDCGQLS

[5] = system: HIV (pNL4.3-GFP / pNL4.3-BaL-GFP) in macrophages; assay: microbe, parasite or virus in culture; assay type: cell-based; conditions: Human immunodeficiency virus 1, BAL, Macrophage, 48 h, read-out: Macrophages EC50
[6] = Anti-metabolic effect (MTS) in the replicon cell line; conditions: human
[7] = system: HIV (pNL4.3-GFP / pNL4.3-BaL-GFP) in CD4+ HeLa cells; assay: microbe, parasite or virus in culture; assay type: cell-based
[8] = system: HIV (pNL4.3-GFP / pNL4.3-BaL-GFP) in Jurkat cells; assay: microbe, parasite or virus in culture; assay type: cell-based; conditions: Human immunodeficiency virus 1, BAL, 48 h, read-out: T cells EC50
[9] = system: HBV in HepG2 2.2.15 cells; assay: HBV antiviral assay (HBV DNA by qPCR); assay type: cell-based, Hepatitis B Virus
[10] = Cell viability (dye uptake) in the HBV assay; assay type: cell-based; conditions: human, HepG2 2.2.15 cells; read-out: TC50
Description: (§1) Antiviral efficacy against HBV may be tested as follows: HepG2 2.2.15 cells are plated in 96-well microtiter plates. After 16-24 hours the confluent monolayer of HepG2 2.2.15 cells is washed and the medium is replaced with complete medium containing various concentrations of a test compound in triplicate (eg six half-log concentrations). Three days later the culture medium is replaced with fresh medium containing the appropriately diluted test compounds. Six days following the initial administration of the test compound, the cell culture supernatant is collected, treated with pronase and then used in a real-time quantitative TaqMan qPCR assay. The PCR-amplified HBV DNA is detected in real-time by monitoring increases in fluorescence signals that result from the exonucleolytic degradation of a quenched fluorescent probe molecule that hybridizes to the amplified HBV DNA. For each PCR amplification, a standard curve is simultaneously generated using dilutions of purified HBV DNA. Antiviral activity is calculated from the reduction in HBV DNA levels (IC50). A dye uptake assay is then employed to measure cell viability, which is used to calculate toxicity (TC50). The therapeutic index (TI) is calculated as TC50/IC50.

HepG2 2.2.15 cells = assay: Cell viability (dye uptake) in the HBV assay; assay type: cell-based; conditions: at concentrations up to 32 μM
Description: as §1

physchem = conditions: pH 7.4, aqueous buffer, kinetic from dmso stock
[11] = target: T1, GST-CypD / Con1 NS5A-His complex; assay: biochemical
[12] = system: HIV (pNL4.3-GFP / pNL4.3-BaL-GFP) in CD4+ T-lymphocytes; assay: microbe, parasite or virus in culture; assay type: cell-based; conditions: Human immunodeficiency virus 1, BAL, T-lymphocyte, 48 h, read-out: CD4+ T-lymphocytes EC50
[13] = Hepatitis C virus, Huh-5-2, 72 h

CyPA, sequence (P62937 whole entry): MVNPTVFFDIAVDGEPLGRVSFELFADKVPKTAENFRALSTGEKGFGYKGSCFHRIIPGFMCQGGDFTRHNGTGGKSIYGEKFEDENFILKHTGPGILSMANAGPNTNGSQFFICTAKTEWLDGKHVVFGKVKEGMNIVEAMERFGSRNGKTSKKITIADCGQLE

C/C=C/C[C@@H](C)[C@@H](O)[C@H]1C(=O)N[C@@H](CC)C(=O)N(C)[C@H](C)C(=O)N(CC)[C@@H](C(C)C)C(=O)N[C@@H](C(C)C)C(=O)N(C)[C@@H](CC(C)C)C(=O)N[C@@H](C)C(=O)N[C@H](C)C(=O)N(C)[C@@H](CC(C)C)C(=O)N(C)[C@@H](CC(C)C)C(=O)N(C)[C@@H](C(C)C)C(=O)N1C [DEBIO-025]
pIC50 (HBV): 5.39 | reduction of HIV-1 RNA levels (HIV-1; in nine patients): ≥ 0.5 log10 copies/mL | reduction of HIV-1 RNA levels (HIV-1; in two patients): > 1 log10 copies/mL

CC[C@H]1C[C@H](C)[C@@]2(NC1=O)O[C@@H](C[C@H](O)[C@@H](C)CC/C=C/C=C(\C)[C@@H]1C/C=C/C=C/[C@H](O)[C@H](C)[C@@H](O)[C@@H](CCC(C)=O)C(=O)N[C@@H](C(C)C)C(=O)N[C@@H](Cc3cccc(O)c3)C(=O)N3CCC[C@H](N3)C(=O)O1)[C@H](C)[C@H](O)[C@@H]2C [Sanglifehrin A, 5, Sanglifehrin A, reference compound]
higher affinity for CyPA compared to CsA (CyPA): approximately 20 fold | Solubility [1]: 9.4 µM (≈ 10.2 µg/mL) | CC50 (Huh5.2 cells; Huh5.2 cells, MTS, 72 hours): 9100 nM | cytotoxicity against the cell line (in words) (Huh5.2 cells; as shown by CC50): more cytotoxicity | pEC50 ([2]; read-out: EC50): 6.50 | EC90 ([2]; read-out: EC90): 5500 nM | pIC50 [3]: 6.67 | pIC50 [4]: 6.43

CON(C)C(=O)/C=C/C=C(\C)[C@@H]1C/C=C/C=C/C=C(\C)[C@@H](O)[C@@H](CCC(C)=O)C(=O)N[C@@H](C(C)C)C(=O)N[C@@H](Cc2cccc(O)c2)C(=O)N2CCCC(N2)C(=O)O1 (stereo partly shown) [compound 29]
pEC50 [5]: 6.51 | CC50 at 72 h [6]: 20200 nM | pEC50 ([7]; Human immunodeficiency virus 1, BAL, HeLa, 48 h, read-out: HeLa cells EC50): 6.40 | potency at inhibiting HIV infection compared to cyclosporine A, 1 (in words) ([7]; four cell types): significantly more potent | pEC50 [8]: 6.70 | Selectivity index (CC50/EC50) [2]: 68.4 | potency in the Huh5.2 replicon assay (in words) [2]: very potent | pEC50 [2, 13]: 6.53 | EC90 [2, 13]: 1500 nM | inhibiting replication of HBV (in words) [9]: remarkably potent | pEC50 ([9]; Hepatitis B virus, HepG2 2.2.15, six days, read-out: HBV EC50): > 7.00 | CC50 at 6 days [10]: > 32000 nM | cytotoxicity in HBV assay (in words) (HepG2 2.2.15 cells): no cytotoxicity | Solubility (physchem): 66 µM (≈ 53.2 µg/mL) | pIC50 [11]: 6.60 | pEC50 [12]: 6.68 | disruption of the CypD-NS5A complex (in words) [4]: potent disruption
